Experimental data: EP1247803A2, “Indolinone compounds suitable for modulation of protein kinases” (Sugen, Inc., priority 1996, dated 1998)

Biological target: T1, FLK-1 receptor (Mus musculus, UniProt P35918)
T1 construct: expressed in transfected cells; host or cells: NIH3T3 C7#3
Experiment: FLK-1 ELISA (kinase activity of the FLK-1 receptor in FLK-1/NIH3T3 cells, VEGF stimulated)
Type: cell-based
Summary of the method: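 FLK-1-expressing NIH3T3 C7#3 cells, starved overnight in 0.1% FBS medium, were treated with compounds at a 1:200 final dilution (0.5% DMSO) for 2 h at 37 °C, with VEGF stimulation. FLK-1 kinase activity was read by ELISA on anti-rabbit IgG plates using affinity-purified anti-FLK-1 antiserum.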

T1 sequence (P35918 20-1345): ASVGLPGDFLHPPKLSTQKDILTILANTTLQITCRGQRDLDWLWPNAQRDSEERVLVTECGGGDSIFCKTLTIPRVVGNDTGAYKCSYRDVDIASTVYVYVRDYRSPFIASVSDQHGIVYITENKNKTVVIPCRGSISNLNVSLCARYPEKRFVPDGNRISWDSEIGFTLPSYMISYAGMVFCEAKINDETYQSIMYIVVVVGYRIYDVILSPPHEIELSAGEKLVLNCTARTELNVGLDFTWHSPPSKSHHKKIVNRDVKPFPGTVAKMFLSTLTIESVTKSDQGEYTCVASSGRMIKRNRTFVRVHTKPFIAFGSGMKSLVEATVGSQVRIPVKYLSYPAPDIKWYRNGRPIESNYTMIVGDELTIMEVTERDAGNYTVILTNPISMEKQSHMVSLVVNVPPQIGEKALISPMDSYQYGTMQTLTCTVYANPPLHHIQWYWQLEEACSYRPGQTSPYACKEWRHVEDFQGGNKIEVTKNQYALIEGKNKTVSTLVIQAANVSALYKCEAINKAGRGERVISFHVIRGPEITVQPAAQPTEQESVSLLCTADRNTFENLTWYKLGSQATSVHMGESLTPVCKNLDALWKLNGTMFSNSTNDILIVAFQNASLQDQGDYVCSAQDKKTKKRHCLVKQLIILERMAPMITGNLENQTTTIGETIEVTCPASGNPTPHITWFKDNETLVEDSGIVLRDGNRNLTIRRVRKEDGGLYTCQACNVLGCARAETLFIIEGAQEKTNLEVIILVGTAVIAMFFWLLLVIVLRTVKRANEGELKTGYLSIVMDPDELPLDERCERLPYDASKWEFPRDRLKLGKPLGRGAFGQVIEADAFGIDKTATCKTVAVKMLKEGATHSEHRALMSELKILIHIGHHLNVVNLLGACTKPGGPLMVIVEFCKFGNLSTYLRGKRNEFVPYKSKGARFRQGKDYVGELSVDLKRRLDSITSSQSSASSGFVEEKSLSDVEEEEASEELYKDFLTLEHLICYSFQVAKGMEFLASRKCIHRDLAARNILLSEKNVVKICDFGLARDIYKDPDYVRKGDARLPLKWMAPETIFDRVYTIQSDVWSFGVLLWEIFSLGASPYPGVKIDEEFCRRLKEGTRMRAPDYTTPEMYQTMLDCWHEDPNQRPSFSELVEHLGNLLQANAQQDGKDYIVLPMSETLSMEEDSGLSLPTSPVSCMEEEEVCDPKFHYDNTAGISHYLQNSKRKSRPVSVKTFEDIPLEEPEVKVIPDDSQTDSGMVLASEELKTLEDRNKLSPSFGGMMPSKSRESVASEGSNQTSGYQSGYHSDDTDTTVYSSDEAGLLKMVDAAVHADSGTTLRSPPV

SMILES | Fik Kinase %Inhibition [%]
O=C1Nc2c(Br)cc(Br)cc2C1=Cc1ccc(F)cc1C(F)(F)F [10719/A11] | 7.4
O=C1Nc2ccc(CCCl)cc2C1=Cc1ccc2ccccc2c1O [10718/G04] | 1.8
O=C1Nc2c(Br)cc(Br)cc2C1=Cc1ccc(O)c(O)c1 [10719/A03] | 3.9
O=C1Nc2c(Br)cc(Br)cc2C1=Cc1ccc(O)cc1 [10719/A07] | 21.3
O=C1Nc2ccc(S(=O)(=O)N3CCOCC3)cc2C1=Cc1ccc(Cl)c([N+](=O)[O-])c1 [10718/F08] | 15.3
COc1cc(OC)c(C=C2C(=O)Nc3ccc(Br)c(C)c32)c(OC)c1 [10719/C06] | 47.7
Cc1c(Br)ccc2c1C(=Cc1ccc(N(C)C)cc1)C(=O)N2 [10719/C08] | 15.0
COc1cc(Br)c(O)c(C=C2C(=O)Nc3ccc(S(=O)(=O)N4CCOCC4)cc32)c1 [10718/F03] | -0.2
Cc1c(O)ccc(C=C2C(=O)Nc3ccc(CCCl)cc32)c1O [10718/G09] | -12.8
O=C1Nc2ccc(I)cc2C1=Cc1cccc([N+](=O)[O-])c1 [10719/B10] | 1.1
COc1ccc(C=C2C(=O)Nc3ccc(I)cc32)c(OC)c1 [10719/B04] | 24.9
O=C1Nc2ccc(S(=O)(=O)N3CCOCC3)cc2C1=Cc1ccco1 [10718/F10] | 17.9
O=C1Nc2ccc(S(=O)(=O)N3CCOCC3)cc2C1=Cc1ccc2ccccc2c1O [10718/F04] | 9.4
Cn1cccc1C=C1C(=O)Nc2ccc(I)cc21 [10717/B04] | -18.3
Cc1c(Br)ccc2c1C(=Cc1ccc(O)cc1)C(=O)N2 [10719/C07] | 31.2
CCc1c(C)[nH]c(C=C2C(=O)Nc3c(Br)cc(Br)cc32)c1C [10719/A05] | 10.0
CCOc1ccc(C=C2C(=O)Nc3c(Br)cc(Br)cc32)cc1OC [10719/A02] | 21.4

SMILES | Fik Kinase %Inhibition [%]
O=C1Nc2ccc(I)cc2C1=Cc1c[nH]c2ccccc12 [10717/B06] | 5.4
O=C1Nc2ccc(CCCl)cc2C1=Cc1ccc([N+](=O)[O-])o1 [10718/G11] | 15.6
CN(C)c1ccc(C=C2C(=O)Nc3c(Br)cc(Br)cc32)cc1 [10719/A08] | 11.9
CCOC(=O)c1cc(C=C2C(=O)Nc3ccc(S(=O)(=O)N4CCOCC4)cc32)oc1C [10718/F06] | 18.3
CCc1c(C)[nH]c(C=C2C(=O)Nc3ccc(Br)c(C)c32)c1C [10719/C05] | 25.6
CCOC(=O)c1cc(C=C2C(=O)Nc3ccc(CCCl)cc32)oc1C [10718/G06] | 9.8
CCOc1ccccc1C=C1C(=O)Nc2ccc(I)cc21 [10717/B02] | 5.0
COc1ccc(C=C2C(=O)Nc3c(Br)cc(Br)cc32)c(OC)c1 [10719/A04] | 19.2
O=C1Nc2c(Br)cc(Br)cc2C1=Cc1cccc([N+](=O)[O-])c1 [10719/A10] | 10.9
O=C1Nc2ccc(I)cc2C1=Cc1ccc(F)cc1Cl [10719/B09] | 11.3
O=C1Nc2ccc(CCCl)cc2C1=Cc1ccc(Cl)c([N+](=O)[O-])c1 [10718/G08] | 6.1
CN(C)c1ccc(C=C2C(=O)Nc3ccc(I)cc32)cc1 [10719/B08] | 4.0
CCOc1ccc(C=C2C(=O)Nc3ccc(I)cc32)cc1OC [10719/B02] | 11.5
COC(=O)c1[nH]c(C)c(C=C2C(=O)Nc3ccc(CCCl)cc32)c1C(=O)OC [10718/G07] | 11.4
COc1cc(OC)c(C=C2C(=O)Nc3ccc(I)cc32)c(OC)c1 [10719/B06] | 21.3
CCOC(=O)CCc1c(C(=O)OCC)[nH]c(C=C2C(=O)Nc3ccc(S(=O)(=O)N4CCOCC4)cc32)c1CC(=O)OCC [10718/F05] | 19.5
COc1cc(OC)c(C=C2C(=O)Nc3c(Br)cc(Br)cc32)c(OC)c1 [10719/A06] | 14.0
